Measurements reported in US20100130736A1, “METHODS OF CREATING AN INDEX” (priority 2008, published 2010).
Read-outs that look alike come from different tables or passages of the source.

Key:
Type in all cases: cell-based, human
quiescent A431 cells [1] = assay: Epic label-free DMR two-step assay, antagonist mode: modulation of marker-induced DMR signals in quiescent A431 cells
Procedure: (§1) Cells were typically grown using ˜1 to 2×10^4 cells per well at passage 3 to 15 suspended in 50 μl of the corresponding culture medium in the biosensor microplate, and were cultured at 37° C. under air/5% CO2 for ˜1 day. Except for A431, which was subject to ˜20 hr starvation through continuous culture in the serum-free DMEM, the other cell types were directly assayed without starvation. The confluency for all cells at the time of assays was ˜95% to 100%.
(§2) Epic® wavelength interrogation system (Corning Inc., Corning, N.Y.) was used for whole cell sensing. This system consists of a temperature-control unit, an optical detection unit, and an on-board liquid handling unit with robotics. The detection unit is centered on integrated fiber optics, and enables kinetic measures of cellular responses with a time interval of ±15 sec.
(§3) For biosensor cellular assays, molecule solutions were made by diluting the stored concentrated solutions with the HBSS (1× Hanks balanced salt solution, plus 20 mM Hepes, pH 7.1), and transferred into a 384 well polypropylene molecule storage plate to prepare a molecule source plate. Both molecule and marker source plates were made separately when a two-step assay was performed. In parallel, the cells were washed twice with the HBSS and maintained in 30 μl of the HBSS to prepare a cell assay plate. Both the cell assay plate and the molecule and marker source plate(s) were then incubated in the hotel of the reader system. After ˜1 hr of incubation the baseline wavelengths of all biosensors in the cell assay microplate were recorded and normalized to zero. Afterwards, a 2 to 10 minute continuous recording was carried out to establish a baseline, and to ensure that the cells reached a steady state. Cellular responses were then triggered by pipetting 10 μl of the marker solutions into the cell assay plate using the on-board liquid handler.
To study the influence of molecules on a marker-induced response, a second stimulation with the marker at a fixed dose (typically at EC80 or EC100) was applied. The resonant wavelengths of all biosensors in the microplate were normalized again to establish a second baseline, right before the second stimulation. The two stimulations were usually separated by ˜1 hr. All studies were carried out at a controlled temperature (28° C.). At least two independent sets of experiments, each with at least three replicates, were performed. […]
A first panel of markers was contacted with quiescent A431 cells at concentrations close to each of the marker's EC80 or EC100, and DMR measurements were obtained with and EPIC® system. This panel of markers was selected from a library of markers identified in A431 cells using Epic® cellular assays. This panel included epidermal growth factor (EGF), epinephrine, nicotinic acid, and histamine. Each of these markers leads to a wide array of cell signaling. […] Each DMR signal represents an averaged response of 4 replicates.

A549 cells [2] = assay: Epic label-free DMR two-step assay, antagonist mode: modulation of marker-induced DMR signals in A549 cells
Procedure: as §1, §2, §3
To study the influence of molecules on a marker-induced response, a second stimulation with the marker at a fixed dose (typically at EC80 or EC100) was applied. The resonant wavelengths of all biosensors in the microplate were normalized again to establish a second baseline, right before the second stimulation. The two stimulations were usually separated by ˜1 hr. All studies were carried out at a controlled temperature (28° C.). At least two independent sets of experiments, each with at least three replicates, were performed.
A second panel of markers was contacted with A549 cells at concentrations close to each of the marker's EC80 or EC100, and DMR measurements were obtained with and EPIC® system. This panel included poly(I:C), SLIGKV-amide, pinacidil, PMA, histamine, and forskolin. Each of these markers also leads to a wide array of cell signaling. Using Epic® cellular assays in conjunction with chemical biology and cell biology approach similar to the EGFR DMR mentioned above, we have determined the pathway(s) and network interaction(s) that is accounted for each marker-induced DMR signal in A549 cells. The main observations are summarized below. Poly(I:C) is an agonist for endogenous Toll-like receptor(s) in A549, whose activation leads to IKK pathway and AKT pathway. SLIGKV-amide is an agonist for endogenous protease activated receptor subtype 2 (PAR2) in A549, whose activation leads to Gq-, Gi- and G12/13-mediated signaling. Pinacidil is an opener for endogenous ATP-sensitive potassium (KATP) ion channel in A549, whose activation leads to Rho- and JAK-mediated signaling. PMA is an activator for protein kinase C (PKC), whose activation leads to PKC pathway and degranulation. Histamine is a natural agonist for endogenous histamine receptors (dominantly H1R, and possibly H3R), whose activation leads to dual signaling, possibly through Gq and Gi mediated signaling in A549. Forskolin is an activator for adenylyl cyclases, whose activation leads to cAMP-PKA pathway in A549. […] Each DMR signal represents an averaged response of 4 replicates. […]

quiescent A431 cells [3] = assay: Epic DMR agonist mode (primary profile) in quiescent A431 cells
Source text: as §2, §3
A DMR index was generated for four ligand molecules. Quiescent A431 and proliferating A549 cells were separately exposed to the ligand molecules for about 1 hr to generate their primary profiles, followed by stimulation with each marker at a fixed concentration (as mentioned in FIGS. 7 and 8) for another 1 hr or so to generate secondary profiles of the molecule against the panels of markers in both types of cells. Next, one or more specific DMR parameters were chosen as a readout for plotting the DMR index of the molecule. For the pinacidil DMR response in A549, the amplitude of the N-DMR (i.e., the amplitude 30 min after stimulation) was chosen. […]

A549 cells [4] = assay: Epic DMR agonist mode (primary profile, target panning) in A549 cells; conditions: A549; 10 μM; about 1 hr
Source text: as §2, §3
First, a panel of ligands targeting GPCRs, each at 10 μM concentration, was chosen, and examined their actions on the A549 cells using DMR measurements with the Epic® system. The ligand panel included the four P2Y agonists ADP, […], UTP and UDP, the adenosine receptor agonist adenosine, the calcium sensing receptor agonist spermine, the histamine receptor agonist histamine, the adrenergic receptor agonist epinephrine, the free fatty acid receptor agonist elaidic acid, the lipoxin receptor agonist lipoxin A4, the bradykinin receptor agonist bradykinin, the adrenodullin receptor agonist adrenodullin, the PAR1 agonist SFLLR-amide, the angiotensin receptor agonist angiotensin, the neuropeptide Y receptor agonist neuropeptide Y, and the PAR2 agonist SLIGKV-amide.
Next, a second ligand panel was chosen, and examined their actions on the A549 cells using DMR measures with the Epic® system. The panel included the protein kinase C activator PMA, the endogenous KATP ion channel activator pinacidil, the adenylyl cyclase activator forskolin, and endogenous Toll-like receptor (TLR) activator poly(I:C).
A DMR index was generated for four ligand molecules. Quiescent A431 and proliferating A549 cells were separately exposed to the ligand molecules for about 1 hr to generate their primary profiles, followed by stimulation with each marker at a fixed concentration (as mentioned in FIGS. 7 and 8) for another 1 hr or so to generate secondary profiles of the molecule against the panels of markers in both types of cells. Next, one or more specific DMR parameters were chosen as a readout for plotting the DMR index of the molecule. For the pinacidil DMR response in A549, the amplitude of the N-DMR (i.e., the amplitude 30 min after stimulation) was chosen. For the poly(I:C) DMR response in A549, the amplitude of the late DMR (i.e., the amplitude 50 min after stimulation) was chosen. For the PMA response in A549, the late DMR amplitude (i.e., the amplitude 50 min after stimulation) was chosen. For the SLIGKV-amide DMR response in A549, the P-DMR amplitude (i.e., the amplitude 20 min after stimulation) was chosen. For the forskolin response in A549 cells, the P-DMR amplitude (i.e., the amplitude 50 min after stimulation) was chosen. For the histamine response in A549, both the early DMR amplitude (i.e., amplitude 10 min after stimulation) and the late response (i.e., the amplitude 30 min after stimulation) were chosen. For the epinephrine response in A431, the P-DMR amplitude (i.e., the amplitude 50 min after stimulation) was chosen.

[5] = quiescent A431, 32 nM EGF, ligand 10 μM, about 1 hr pretreatment
[6] = 10 μM, score scaled from percent modulation (10% = 1)
[7] = A431, ~1 hr pretreatment with the molecule
[8] = quiescent A431, 10 μM, score scaled from percent modulation (10% = 1)
[9] = ~1 hr pretreatment with the molecule

COc1cc2ncnc(Nc3cccc(Cl)c3)c2cc1OC [AG1478]
effect on the EGF response / DMR signal induced by EGF (in words) (quiescent A431 cells [1]; [5]): almost completely blocked

CNCCNS(=O)(=O)c1cccc2cnccc12 [H-8]
modulation index score, PMA (A549 cells [2]; [6]): 2.2
modulation index score, SLIGKV-amide (A549 cells [2]; [6]): 3.2
modulation index score, forskolin (A549 cells [2]; [6]): 2
modulation index score, histamine (early P-DMR) (A549 cells [2]; [6]): 3.8
modulation index score, histamine (late P-DMR) (A549 cells [2]; [6]): 6.5
modulation index score, pinacidil (A549 cells [2]; [6]): −7.2
modulation index score, poly(I:C) (A549 cells [2]; [6]): 1.8
effect on the epinephrine response (in words) (quiescent A431 cells [1]; [7]): less effective at attenuating
effect on the histamine response (in words) (quiescent A431 cells [1]; [7]): less effective at attenuating
modulation index score, EGF (N-DMR) (quiescent A431 cells [1]; [8]): −2
modulation index score, EGF (P-DMR) (quiescent A431 cells [1]; [8]): 0.3
modulation index score, epinephrine (quiescent A431 cells [1]; [8]): −1.6
modulation index score, histamine (quiescent A431 cells [1]; [8]): 1.6
modulation index score, nicotinic acid (quiescent A431 cells [1]; [8]): 1

C#Cc1cccc(Nc2ncnc3cc(OC)c(OC)cc23)c1 [BML-265]
effect on the EGF response / DMR signal induced by EGF (in words) (quiescent A431 cells [1]; [5]): almost completely blocked

N#CC(=C(/N)Sc1ccccc1N)/C(C#N)=C(\N)Sc1ccccc1N [U0126]
effect on the N-DMR of the EGF DMR signal (in words) (quiescent A431 cells [1]): significantly and selectively attenuated
effect on the RP-DMR of the EGF DMR signal (in words) (quiescent A431 cells [1]): significantly and selectively attenuated

EGF: natural agonist for endogenous EGF receptor in A431
EC80 to trigger the DMR signal (quiescent A431 cells [3]; fully quiescent A431 cells): ~32 nM
DMR signal triggered (quiescent A431 cells [3]; fully quiescent A431 cells, EGF ~32 nM, three phases P-DMR, N-DMR, RP-DMR, FIG. 4): distinct and robust DMR signal
DMR response as a function of dose (quiescent A431 cells [3]; quiescent A431 cells, data not shown): dose-dependent response

CC(=O)c1c(O)c(C)c(O)c(Cc2c(O)c3c(c(C(=O)/C=C/c4ccccc4)c2O)OC(C)(C)C=C3)c1O [rottlerin]
effect on the N-DMR of the EGF DMR signal (in words) (quiescent A431 cells [1]; [5]): part of the early N-DMR event
effect on the early P-DMR event of the EGF DMR signal (in words) (quiescent A431 cells [1]; [5]): specifically caused the truncation

O=S(=O)(c1cccc2cnccc12)N1CCCNCC1 [HA1077]
modulation of the PMA-induced DMR response (A549 cells [2]; molecule 10 μM, 8 μM PMA, late DMR amplitude 50 min after stimulation): +36%
modulation of the SLIGKV-amide-induced DMR response (A549 cells [2]; molecule 10 μM, 8 μM SLIGKV-amide, P-DMR amplitude 20 min after stimulation): +22%
modulation of the histamine-induced DMR response (early P-DMR) (A549 cells [2]; molecule 10 μM, 10 μM histamine, amplitude 10 min after stimulation): +26%
modulation of the histamine-induced DMR response (late P-DMR) (A549 cells [2]; molecule 10 μM, 10 μM histamine, amplitude 30 min after stimulation): +55%
modulation of the forskolin-induced DMR response (A549 cells [2]; molecule 10 μM, 16 μM forskolin, P-DMR amplitude 50 min after stimulation): +18%
modulation of the poly(I:C)-induced DMR response (A549 cells [2]; molecule 10 μM, 250 μg/ml poly(I:C), late DMR amplitude 50 min after stimulation): +18%
effect on the PMA response (in words) (A549 cells [2]; [9]): significantly potentiated
effect on the histamine response (in words) (A549 cells [2]; [9]): significantly potentiated
effect on the pinacidil response (in words) (A549 cells [2]; [9]): almost completely attenuated
primary profile of the molecule (DMR signal triggered) (A549 cells [4]): N-DMR signal
